Laboratory results: patent US11530196B2, “Pyrimidine compound acting on EGFR and ERBB2” (CHINA RESOURCES PHARMACEUTICAL HOLDINGS COMPANY LIMITED, priority 2019, dated 2022)

Experiments:
[1] = target: Ba/F3 EGFR-D770_N771insSVD (Homo sapiens, UniProt P00533, DUP768-770, cells depend on it); experiment: Anti-proliferation against Ba/F3 exon 20 insertion mutant cells (SVD); format: cell-based, mouse; conditions: CTG, 72 hours, read-out: Mutant cells IC50 (anti-proliferation)
Source text: RPMI1640 medium was purchased from Hyclone, FBS fetal bovine serum was purchased from GBICO, and trypsin-EDTA were both purchased from Giboco. DPBS was purchased from Corning, penicillin/streptomycin solution was purchased from Hyclone, and Cell-Titer Glo reagent was purchased from Promega (Cat. No. G7572). Ba/F3 EGFR-D770_N771insSVD, Ba/F3 EGFR-H773_V774insNPH, Ba/F3 EGFR-V769_D770insASV, BaF3 ERBB2 A775_G776 ins YVMA, the cell lines were constructed by Beijing Kang Yuan Bochuang Biotechnology Co., Ltd. Plate reading instrument: Envision (PerkinElmer).
Cells in logarithmic growth phase were harvested and cell counts were performed using a […]. Cell viability was detected by the Taipan Blue rejection assay. The cell concentration was adjusted; the cell suspension was added to a 96-well plate separately. Cells in 96-well plates were incubated overnight at 37° C., 5% CO2, and 95% humidity. To prepare the drug solution, 10 μL of drug solution was added to each well of the 96-well plate inoculated with cells, and three replicate wells were set up for each drug concentration. The cells in the 96-well plates added with drugs were placed at 37° C., 5% CO2, 95% humidity and continued to incubate for 72 hours, after which CTG analysis was performed and the cells were vibrated on an orbital shaker to lyse the cells. The cell plate was placed at room temperature to stabilize the cold light signal, and the cold light values were read. The data were analyzed using GraphPad Prism 7.0 software, and a nonlinear S-curve regression was used to fit the data to derive the dose-effect curve from which the IC50 values were calculated.
The IC50 of anti-proliferation activity against Ba/F3 Exon20 insertion mutant cells of the compounds of the present disclosure is shown in Table 5.
Ba/F3 exon 20 insertion mutant cells are cell lines with SVD, NPH, ASV, and YVMA insertion mutations artificially constructed using mouse B cells, and it can be seen from Table 5 that the compounds of the present disclosure have better cellular anti-proliferation activity against the […] exon 20 insertion mutations such as SVD, NPH, ASV, and YVMA, and also show better anti-proliferation activity against common exon 20 insertion mutations such as SVD mutation.

[2] = test system: non-small cell lung cancer with EGFR and HER2 exon 20 insertion mutation; conditions: clinical reports, NSCLC with EGFR and HER2 exon 20 insertion mutation; cited from earlier work

Ba/F3 EGFR-D770_N771insSVD, sequence (P00533 with tags, fused parts or gaps DUP768-770): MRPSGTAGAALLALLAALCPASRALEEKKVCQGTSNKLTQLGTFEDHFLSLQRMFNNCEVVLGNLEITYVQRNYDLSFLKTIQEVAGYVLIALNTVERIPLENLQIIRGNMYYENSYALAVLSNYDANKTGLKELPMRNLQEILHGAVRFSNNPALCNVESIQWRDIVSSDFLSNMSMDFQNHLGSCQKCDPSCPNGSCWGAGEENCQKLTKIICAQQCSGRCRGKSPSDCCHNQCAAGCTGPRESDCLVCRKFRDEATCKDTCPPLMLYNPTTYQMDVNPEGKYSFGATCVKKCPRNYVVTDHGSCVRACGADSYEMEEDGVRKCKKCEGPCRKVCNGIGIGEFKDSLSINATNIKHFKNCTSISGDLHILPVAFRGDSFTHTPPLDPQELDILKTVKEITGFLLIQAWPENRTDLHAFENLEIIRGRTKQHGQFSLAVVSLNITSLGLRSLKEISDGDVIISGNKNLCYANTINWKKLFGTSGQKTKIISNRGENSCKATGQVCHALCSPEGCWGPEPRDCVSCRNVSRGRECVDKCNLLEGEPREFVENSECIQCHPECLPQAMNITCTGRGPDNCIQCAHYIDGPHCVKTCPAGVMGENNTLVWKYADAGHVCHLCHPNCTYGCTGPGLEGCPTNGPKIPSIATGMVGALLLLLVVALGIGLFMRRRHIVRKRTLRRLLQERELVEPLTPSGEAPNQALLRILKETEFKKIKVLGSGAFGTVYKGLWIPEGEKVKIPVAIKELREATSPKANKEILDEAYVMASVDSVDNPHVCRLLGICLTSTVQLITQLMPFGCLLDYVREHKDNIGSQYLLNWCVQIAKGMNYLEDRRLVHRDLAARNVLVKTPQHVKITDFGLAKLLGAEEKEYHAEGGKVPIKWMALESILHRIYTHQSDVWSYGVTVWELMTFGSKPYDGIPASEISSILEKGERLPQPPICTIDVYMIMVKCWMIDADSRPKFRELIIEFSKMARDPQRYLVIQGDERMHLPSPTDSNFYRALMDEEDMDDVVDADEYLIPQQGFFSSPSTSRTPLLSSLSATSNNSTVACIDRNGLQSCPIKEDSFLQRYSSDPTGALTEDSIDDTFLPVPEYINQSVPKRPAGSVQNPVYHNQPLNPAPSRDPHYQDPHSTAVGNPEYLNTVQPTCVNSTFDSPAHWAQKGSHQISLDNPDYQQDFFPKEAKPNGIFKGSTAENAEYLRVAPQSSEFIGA

| Compound | GI50 [1] | disease control rate [2] | objective response rate [2] |
| --- | --- | --- | --- |
| C=CC(=O)Nc1cc(Nc2ncc(C(=O)OC(C)C)c(-c3cn(OCC)c4ccccc34)n2)c(OC)cc1N(C)CCN(C)C [Compound 2] | 27 nM |  |  |
| C=CC(=O)Nc1cc(Nc2ncc(C(=O)OC(C)C)c(-c3cn(OC(C)C)c4ccccc34)n2)c(OC)cc1N(C)CCN(C)C [Compound 3] | 54 nM |  |  |
| C=CC(=O)Nc1cc(Nc2ncc(C(=O)OC(C)C)c(-c3cn(OC)c4c(Cl)cccc34)n2)c(OC)cc1N(C)CCN(C)C [Compound 4] | 33 nM |  |  |
| C=CC(=O)Nc1cc(Nc2ncc(C(=O)OC(C)C)c(-c3cn(OC)c4c(C5CC5)cccc34)n2)c(OC)cc1N(C)CCN(C)C [Compound 5] | 58 nM |  |  |
| C=CC(=O)Nc1cc(Nc2ncc(C(=O)OC(C)C)c(-c3cn(C)c4ccccc34)n2)c(OC)cc1N(C)CCN(C)C [TAK788] |  | 86% | 43% |
